Measured values: patent publication US20190256509A1, “HISTONE DEMETHYLASE INHIBITORS” (CHRYSALIS, INC., priority 2016, published 2019)

Target: T1, KDM5B enzyme (Homo sapiens, UniProt Q9UGL1)
T1 construct: Reaction Biology Corp (named for the assay, not expressly for the enzyme)
Test: KDM5B HTRF (TR-FRET) demethylase inhibition assay
Type: biochemical
Details: 1.2 nM KDM5B, 30 nM Biotin-H3K4Me3 1-21 substrate, 10 point dose-response
Experimental: Ten point dose-response curves for the compounds of Examples 1-135 were determined using a homogeneous time resolved fluorescence (HTRF) assay (Reaction Biology Corp, Malvern, Pa.). This assay combines fluorescence resonance energy transfer (FRET) with time resolve (TR) measurements (TR-FRET). The KDM5B α-ketoglutarate-dependent demethylase activity is calculated by measuring demethylation of a biotin labeled histone tri-methylated H3K4 substrate using an europium-cryptate (Eu)-labeled antibody donor specific for dimethylated histone H3K4 and a Streptavidin-XL665 acceptor that binds to the biotin group of substrate, and detecting FRET by exciting the reaction mixture at 320 nm and reading dual emissions at 615 nm and 665 nm.
Briefly, compounds disclosed herein were solubilized in DMSO and a series of 10, three-fold serial dilutions were made for each compound in 100% DMSO. The initial starting concentration for the serial dilutions of each compound was 10 μM or 100 μM. Control samples lacking compound, KDM5B enzyme or various reaction components also were prepared and processed in parallel with compound test samples.
An aliquot of each serial dilution of test compound was added to a 384 well plate (Corning Cat #3572) containing 1.2 nM KDM5B enzyme suspended in 50 mM Hepes, pH7.5, 50 mM NaCl, 0.01% Tween 20, 0.1% BSA, and 1% DMSO (final concentrations) in a 10 microliter reaction volume using a LABCYTE ECHO liquid handler. The samples were mixed, subjected to centrifugation and the plate was pre-incubated at room temperature for 15 minutes (min), to which 30 nM Biotin-H3K4Me3 1-21 substrate (Anaspec, Freemont Calif., Cat #64192), 20 μM Fe(II) and 20 μM α-ketoglutarate co-factors, and 100 μM Ascorbate were added to initiate the enzymatic reaction. The reaction mixture was incubated at room temperature for 45 minutes. A 10 μl aliquot of a detection mixture of Eu-labeled anti-histone H3K4Me2 antibody (CisBIO, Bedford Mass., Cat #610AXLB) and Streptavidin-XL665 (CisBIO, Bedford Mass., Cat #610 SAXLB) in 200 mM potassium fluoride and 10 mM EDTA was added and kinetic measurements were read at 5 minute intervals for a period of 30 minutes using an Envision Multiplate Reader (PerkinElmer Model 2102; excitation at 320 nm and emission reads at 615 nm and 665 nm). The IC50 value for each compound was determined from the 665/615 ratio obtained for each 10 point dose-response curve using GraphPad Prism 4 software with a sigmodial dose response.

T1 sequence (Q9UGL1 whole entry): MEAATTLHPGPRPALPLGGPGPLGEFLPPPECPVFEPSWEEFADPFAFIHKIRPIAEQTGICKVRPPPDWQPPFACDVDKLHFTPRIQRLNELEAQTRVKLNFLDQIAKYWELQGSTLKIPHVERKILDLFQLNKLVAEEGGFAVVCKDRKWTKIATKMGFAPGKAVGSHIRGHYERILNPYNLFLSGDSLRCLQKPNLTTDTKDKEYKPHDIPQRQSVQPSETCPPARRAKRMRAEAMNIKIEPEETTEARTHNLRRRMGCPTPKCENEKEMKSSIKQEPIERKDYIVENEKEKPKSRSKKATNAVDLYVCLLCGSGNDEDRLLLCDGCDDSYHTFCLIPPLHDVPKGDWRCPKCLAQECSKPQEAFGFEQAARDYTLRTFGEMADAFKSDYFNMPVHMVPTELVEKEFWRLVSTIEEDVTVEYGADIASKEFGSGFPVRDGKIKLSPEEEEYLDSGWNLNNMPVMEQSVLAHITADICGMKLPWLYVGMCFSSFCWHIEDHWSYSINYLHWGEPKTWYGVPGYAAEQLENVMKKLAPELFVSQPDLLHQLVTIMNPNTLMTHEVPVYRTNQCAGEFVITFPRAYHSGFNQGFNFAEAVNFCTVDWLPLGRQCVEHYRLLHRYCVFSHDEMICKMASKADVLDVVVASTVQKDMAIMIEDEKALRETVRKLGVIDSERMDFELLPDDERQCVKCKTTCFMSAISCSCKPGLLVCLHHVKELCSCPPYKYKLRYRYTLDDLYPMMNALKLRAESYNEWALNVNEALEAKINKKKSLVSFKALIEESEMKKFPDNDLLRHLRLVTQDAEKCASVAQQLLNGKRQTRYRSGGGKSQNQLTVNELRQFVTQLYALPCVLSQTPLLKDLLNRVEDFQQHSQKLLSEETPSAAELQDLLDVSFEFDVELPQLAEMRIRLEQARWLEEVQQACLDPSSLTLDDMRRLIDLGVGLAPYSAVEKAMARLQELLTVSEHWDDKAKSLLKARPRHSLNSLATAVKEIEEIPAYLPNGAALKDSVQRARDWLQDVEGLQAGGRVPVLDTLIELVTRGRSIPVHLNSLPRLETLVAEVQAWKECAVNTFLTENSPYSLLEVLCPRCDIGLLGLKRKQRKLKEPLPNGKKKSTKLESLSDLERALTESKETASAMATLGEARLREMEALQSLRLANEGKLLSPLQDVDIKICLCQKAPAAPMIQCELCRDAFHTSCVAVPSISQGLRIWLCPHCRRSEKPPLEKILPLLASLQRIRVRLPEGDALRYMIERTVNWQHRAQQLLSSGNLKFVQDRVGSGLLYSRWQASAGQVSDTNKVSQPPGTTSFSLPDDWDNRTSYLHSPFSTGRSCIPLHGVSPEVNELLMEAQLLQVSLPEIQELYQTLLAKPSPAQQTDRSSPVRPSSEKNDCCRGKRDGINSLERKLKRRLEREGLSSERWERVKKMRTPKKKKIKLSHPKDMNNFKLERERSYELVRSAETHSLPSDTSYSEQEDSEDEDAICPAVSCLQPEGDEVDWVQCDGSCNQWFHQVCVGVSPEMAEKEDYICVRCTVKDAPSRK

Structure (SMILES)	IC50 [µM]
O=C(O)c1c(NCc2cc(F)c(F)c(F)c2)ccc2nccn12 [Example 87]	> 1
O=C(O)c1c(NCc2cc(F)cc(C(F)(F)F)c2)ccc2nccn12 [Example 93]	> 1
Cc1nc2cc(C(O)c3ccccc3)ccn2c1C(=O)O (stereo not shown) [Example 101]	> 1
O=C(O)c1cnc2cc(C(O)c3ccccc3)ccn12 (stereo not shown) [Example 102]	> 1
CC(O)c1ccn2c(C(=O)O)cnc2c1 (stereo not shown) [Example 103]	> 1
O=C(O)c1cnc2cc(Oc3ccccc3)ccn12 [Example 104]	> 1
O=C(O)c1cnc2cc(Oc3ccc4ccncc4c3)ccn12 [Example 105]	> 1
CC(O)c1cc(C(=O)O)n2ccnc2c1 (stereo not shown) [Example 106]	> 1
COc1ccccc1Oc1cc(C(=O)O)n2ccnc2c1 [Example 108]	> 1
O=C(O)c1cc(Oc2ccc3ccncc3c2)cc2nccn12 [Example 109]	> 1
COc1cc(Cl)ccc1CNc1ccc2nccn2c1C#N [Example 110]	> 1
COc1cc(Cl)ccc1CNc1ccc2nccn2c1-c1nn[nH]n1 [Example 111]	> 1
COc1ccc(Cl)cc1CNc1ccc2ncc(C(=O)O)n2c1 [Example 112]	> 1
O=C(O)c1cc(-c2cn(Cc3ccc(Cl)cc3)cn2)cc2nccn12 [Example 113]	≤ 0.5
COc1ccc(Cl)cc1CNc1ccc2nc(C)cn2c1C(=O)O [Example 114]	> 1
O=C(O)c1c(NCC2CCCc3cc(Oc4ccccc4)ccc32)ccc2nccn12 (stereo not shown) [Example 115]	> 1
COc1cc(C)ccc1-c1ccc2ncc(C(=O)O)n2c1 [Example 116]	> 1
COc1ccc(Cl)cc1CNc1cc(C(=O)O)n2ccnc2c1 [Example 117]	> 1
COc1cc(Cl)ccc1CNc1ccc2ncc(C(=O)O)n2c1 [Example 118]	> 1
COc1cc(Cl)ccc1CNc1ccc2nc(C)cn2c1C(=O)O [Example 119]	> 1
COc1cc(Cl)ccc1COc1ccc2nccn2c1C(=O)O [Example 120]	> 1
COc1cc(Cl)ccc1CNc1cc(C(=O)O)n2ccnc2c1 [Example 122]	> 1
COc1cc(Cl)ccc1COc1cc(C(=O)O)n2ccnc2c1 [Example 123]	> 1
COc1ccc(-c2cccc(CNc3ccc4nccn4c3C(=O)O)c2)cc1 [Example 125]	> 1
O=C(O)c1c(NCc2cccc(-c3cccnc3)c2)ccc2nccn12 [Example 126]	0.5 to 1
COc1cc(Cl)ccc1OCc1cc(C(=O)O)n2ccnc2c1 [Example 129]	≤ 0.5
COc1cc(CN2CCC(NCCc3ccccc3)CC2)ccc1CNc1ccc2nccn2c1C(=O)O [Example 130]	0.5 to 1
O=C(O)c1cc(OCCN2CCC(c3cc(Cl)cc(Cl)c3)CC2)cc2nccn12 [Example 132]	> 1
CN(Cc1ccc(F)cc1)Cc1ccc(Oc2cc(C(=O)O)n3ccnc3c2)cc1 [Example 134]	> 1
O=C(O)c1cc(CCCN2CCC(c3cc(Cl)cc(Cl)c3)CC2)cc2nccn12 [Example 135]	≤ 0.5

Other lines, results leading:

IC50 [µM]	Structure (SMILES)
> 1	O=C(O)c1c(NCc2ccccc2F)ccc2nccn12 [Example 85]
> 1	O=C(O)c1c(NCc2ccccc2N2CCOCC2)ccc2nccn12 [Example 86]
≤ 0.5	CS(=O)(=O)c1cccc(CNc2ccc3nccn3c2C(=O)O)c1 [Example 88]
> 1	O=C(O)c1c(NCc2cccc(OC(F)(F)F)c2)ccc2nccn12 [Example 89]
> 1	O=C(O)c1c(NCc2ccc(F)c(Br)c2)ccc2nccn12 [Example 90]
> 1	O=C(O)c1c(NCc2ccccc2Cl)ccc2nccn12 [Example 91]
0.5 to 1	COc1c(F)cccc1CNc1ccc2nccn2c1C(=O)O [Example 92]
≤ 0.5	COc1cccc(CNc2ccc3nccn3c2C(=O)O)c1 [Example 94]
> 1	O=C(O)c1c(NCc2ccc(OC(F)(F)F)cc2)ccc2nccn12 [Example 95]
> 1	CN(C)c1ccc(CNc2ccc3nccn3c2C(=O)O)cc1 [Example 96]
0.5 to 1	COc1cc(CNc2ccc3nccn3c2C(=O)O)ccc1F [Example 97]
> 1	O=C(O)c1c(NCc2ccc3c(c2)CCO3)ccc2nccn12 [Example 98]
> 1	O=C(O)c1c(NCc2cc(Cl)c(F)cc2F)ccc2nccn12 [Example 99]
0.5 to 1	CC(=O)N(C)c1cccc(CNc2ccc3nccn3c2C(=O)O)c1 [Example 100]
> 1	O=C(O)c1c(NCc2cccc3c2CNCC3)ccc2nccn12 [Example 121]
> 1	CCN1CCN(c2ccc(CNc3ccc4nccn4c3C(=O)O)c3c2CCCC3)CC1 [Example 124]
≤ 0.5	Cn1nccc1-c1cccc(CNc2ccc3nccn3c2C(=O)O)c1 [Example 127]
> 1	N#Cc1cccc(CNc2ccc3nccn3c2C(=O)O)c1 [Example 128]
> 1	CN(C)Cc1ccccc1CNc1ccc2nccn2c1C(=O)O [Example 131]
